Measurements reported in patent US20030228675A1, “ATM related kinase ATX, nucleic acids encoding same and methods of use” (priority 2002, published 2003).

Legend:
[1] = system: p53; assay: Stress-induced p53 Ser-15 phosphorylation and p53 accumulation by immunoblotting; type: cell-based, human; settings: U2OS treated with the drug
Procedure: To prepare recombinant HA-tagged ATX and ATM proteins, HEK 293T cells were plated onto 60-mm dishes (9×10^5 cells per dish), and were transfected with 5 μg pcDNA3.1 (empty vector), HA-ATXWT, HA-ATXKI, or HA-ATMWT plasmid DNAS. Transfections were performed with the Fugene 6 transfection reagent (Roche), according to the manufacturer's instructions. For NMD assays (see Example 9, below), U2OS cells were seeded onto 100 mm dishes (1×10^6 cells per dish). After 20 h, cells were transfected with 1.5 μg of pmCMV-Gl test plasmid, either Norm or 39Ter (Ishigaki et al., 2001); 1.5 μg of phCMV-MUP reference plasmid (Ishigaki et al., Cell 106:607-617 (2001)); and 7 μg of empty plasmid (pcDNA 3.1), plasmids encoding HA-ATMWT, HA-ATMKI, HA-ATXWT or HA-ATXKI. For antisense transfection experiments, U2OS cells were seeded onto 60 mm dishes (1×10^5 cells per dish) in complete medium supplemented with penicillin/streptomycin. After 30 h, cells were either mock transfected or transfected with sense (S) or antisense (AS) phosphorothioate oligonucleotides (Genset Oligos, La Jolla, Calif.). The S oligonucleotide spans ATX nucleotides 210-229 (5′-[…]-3′), and the AS oligonucleotide is complementary to this sequence (5′-[…]-3′). The cells were transfected with oligonucleotides at final concentrations of 8 μg/ml, with Fugene 6:DNA ratio of 1.6:1. Forty-eight hours after transfection, dishes were exposed to IR, UV-B, or 5-FU, and then harvested for immunoblotting, cell-cycle distribution, or cell survival assays. To examine ATX protein levels in oligonucleotide-treated cells, whole cell extracts were resolved by SDS-PAGE and immunoblotted with α-ATX Ab-1. When oligonucleotide-transfected cells were used for NMD assays, U2OS cells were seeded in culture dishes as described above. The cells were transfected using the Fugene reagent, with 1.5 μg of pmCMV-Gl test plasmid, 0.7 μg of phCMV-MUP reference plasmid, and 24 μg of S or AS oligonucleotide.
A major mediator of stress-induced signaling in mammalian cells is the tumor suppressor protein, p53 (Ko and Prives, Genes and Development 10:1054-1072, (1996); Ryan et al., Curr. Opin. Cell Biol. 13:332-337 (2001)). ATX phosphorylates p53 on Ser-15 (FIG. 1C), a site implicated in the regulation of p53 stability and transcriptional activity (Dumaz and Meek, Curr. Opin. Cell Biol. 13:225-231 (1999); Zhang and Xiong, Science 292:1910-1915 (2001)). Therefore, the possibility that these two proteins are functionally linked during cellular stress responses was investigated. U2OS cells were transiently transfected with a HA-ATXWT or HA-ATXKI expression plasmid, together with a GFP-encoding plasmid to allow for FACS-based enrichment of the transfected cells. The GFP+ cells were then examined for IR-induced stabilization of p53, as well as for specific phosphorylation of this protein on Ser-15. […] In contrast, overexpression of ATXWT enhanced both of these responses in cells exposed to IR.
The recognition of UV light-induced DNA damage occurs primarily during S phase, when pyrimidine dimers and other bulky lesions interfere with replication fork progression (Friedberg, DNA Repair and Mutagenesis (Washington, D.C., ASM Press) (1995); Lindahl and Wood, Cell 103:1121-1131 (1999)).
In order to further define the potential linkage between DNA replicational stress and ATX, the response of AS-treated cells to 5-fluorouracil (5-FU), an S-phase specific cytotoxic agent was examined (Danenberg et al., Seminars in Oncology 26:621-631 (1999); Grem, Investigational New Drugs 18:299-313 (2000)).
Changes in phosphorylation at Ser-15 are typically accompanied by alterations in the expression of the p53 protein, which complicates the interpretation of results obtained by immunoblotting of whole cell extracts with phospho-Ser-15-specific antibodies. […]

[2] = system: U2OS cells; assay: Cell-cycle distribution by flow cytometry; type: cell-based, human; settings: 24 h post-irradiation
Procedure: Since p53 plays a central role in activation of the G1 checkpoint, and influences S, G2, and M checkpoints as well (Giaccia and Kastan, Genes & Development 12:2973-2983 (1998); Ko and Prives, supra, 1996), a functional deficiency of ATX might alter the cell-cycle arrest responses to IR and other genotoxic agents. To test this possibility, U2OS cells were pre-treated with S or AS oligonucleotides, exposed to IR, and cell-cycle distributions at 24 h post-irradiation were determined.
The G2 checkpoint inhibitor was added to the culture medium at 8 h prior to harvest for determination of cell-cycle distributions (FIG. 3E, left panel), and immunoblotting for ATX expression (right panel).

[3] = system: U2OS cells; assay: Clonogenic survival assay of oligonucleotide-transfected cells; type: cell-based, human; settings: non-irradiated, 10 days in culture
Procedure: To address concerns related to potential non-specific effects of ATXKI expression on cellular functions, an antisense oligonucleotide-based approach to reduce the level of ATX expression in U2OS cells was developed. The cells were mock transfected, or transfected with sense (S) or antisense (AS) oligonucleotides, and then treated for 24 h with various genotoxic agents. The cells were then trypsinized and replated, and clonogenic survival was analyzed after 10 days in culture. The results obtained with AS-treated cells were strikingly similar to those obtained with the ATXKI-expressing cells (FIGS. 2A-C). While transfection of U2OS cells with the S oligonucleotide reduced the basal level of colony outgrowth by 25%, treatment with the AS oligonucleotide decreased basal clonogenic activity by 75% (FIG. 2C, right panel). […] The reduction in ATX protein caused by AS treatment ranged from 50-90% in over 10 independent trials.
To prepare recombinant HA-tagged ATX and ATM proteins, HEK 293T cells were plated onto 60-mm dishes (9×10^5 cells per dish), and were transfected with 5 μg pcDNA3.1 (empty vector), HA-ATXWT, HA-ATXKI, or HA-ATMWT plasmid DNAS. Transfections were performed with the Fugene 6 transfection reagent (Roche), according to the manufacturer's instructions. For NMD assays (see Example 9, below), U2OS cells were seeded onto 100 mm dishes (1×10^6 cells per dish). […]
U2OS cells were seeded into 60 mm dishes (1×10^5 cells per dish) in complete medium. […] To quantitate the outgrowth of drug-resistant cells, the Coomassie Blue-bound protein was solubilized at 37° C. with 0.1 M NaOH, and the soluble material was analyzed by absorbance spectroscopy at a wavelength of 590 nm. […] Drug-resistant colonies were stained with Coomassie Blue after 10 days in culture, and the samples were analyzed with Image Pro Plus software to quantitate cell density. […]

[4] = molecular target: T1, ATX (Homo sapiens, UniProt Q96Q15); assay: ATX kinase activity after drug treatment of intact U2OS cells, immunoprecipitation of endogenous ATX; type: cell-based; parameters: immunoprecipitation of endogenous ATX with α-ATX Ab-2; endogenous in cells; host or cells: U2OS osteosarcoma cells; settings: U2OS cells pretreated for 30 min, endogenous ATX immunoprecipitated with α-ATX Ab-2
Description: The protein kinase activities of the mammalian PIKKs characteristically display a strong dependence on Mn2+ as a cofactor for the phosphotransferase reaction, and variable sensitivity to inhibition by wortmannin (Abraham, Genes and Development 15:2177-2196 (2001)). In our studies, the protein kinase activity of ATX was also dependent on the addition of Mn2+ the kinase reaction buffer (data not shown). […] Wortmannin is an irreversible inhibitor of PIKKs (Walker et al., Molecular Cells 6:909-919 (2000)) and can be used to assess the potency of this drug as an ATX inhibitor in intact cells. To this end, U2OS osteosarcoma cells were pretreated for 30 min with the indicated concentrations of wortmannin, followed by the preparation of cellular extracts for immunoprecipitation of endogenous ATX with α-ATX Ab-2. […]
For subcellular fractionations, U2OS cells were resuspended in cold homogenization buffer (25 mM Hepes, pH 7.4, 250 mM sucrose, 1 mM EGTA, 5 mM MgCl2, 50 mM NaF, 1 mM DTT, plus protease inhibitors) and Dounce homogenized on ice with 40 strokes in a Tefloncoated homogenizer. […] After separation by SDS-PAGE, the proteins were detected by autoradiography (for kinase reaction products) or by immunoblotting. Proteins immunoblotted with rabbit and mouse antibodies were detected with protein A-horseradish peroxidase (HRP) (Amersham), and sheep anti-mouse IgG-HRP (Amersham), respectively. […]

[5] = molecular target: T1, ATX; assay: Immune complex kinase assay, immunoprecipitated HA-ATXWT pretreated with drug, GST-p53 1-70 phosphorylation; type: biochemical; parameters: was used to isolate a full-length cDNA encoding a novel member of the PIKK family, termed ATX; made in house; settings: pretreatment of immunoprecipitated HA-ATXWT; GST-p53 1-70 substrate; read-out: drug concentration required for 50% inhibition (IC50) of ATX activity in vitro
Procedure: With the exception of the TOR proteins, the PIKK family members that bear functional catalytic domains phosphorylate substrates bearing the Ser/Thr-Gln motif (Tibbetts and Abraham, supra, 2000). […] Detergent extracts from the transfected cell populations were immunoprecipitated with α-HA antibody, and protein kinase assays were performed in buffer containing Mn2+, [γ-32P]ATP, and a GST fusion protein containing the first 70 amino acids of p53 (GST-p531-70) as the substrate (FIG. 1C). The GST-p531-70 protein was previously identified as a substrate for ATM and ATR in immune complex kinase assays (Tibbetts et al., Genes and Development 13:152-157 (1999)). […] Based on the ratios of 32P incorporation into substrate to levels of HA-tagged protein kinase, it can be estimated that the specific kinase activity of ATXWT was approximately 3.5-fold higher than that of ATMWT. As observed with ATM as the test kinase (Banin et al., Science 281:1674-1677 (1998); Canman et al., Science 281:1677-1679 (1998); Tibbetts et al., supra, 1999), phosphorylation of GST-p531-70 by ATXWT was nearly abolished by substitution of the Ser-15 residue in p53 with Ala (FIG. 1C, right panel). […] In contrast to the amino-terminal fragment, of p53, the PHAS-I/4E-BP1 protein, which is the prototypical substrate for mTOR, was poorly phosphorylated by HA-ATXWT in immune complex kinase assays (data not shown). […]
Target sequence in this assay (Q96Q15 141-3661): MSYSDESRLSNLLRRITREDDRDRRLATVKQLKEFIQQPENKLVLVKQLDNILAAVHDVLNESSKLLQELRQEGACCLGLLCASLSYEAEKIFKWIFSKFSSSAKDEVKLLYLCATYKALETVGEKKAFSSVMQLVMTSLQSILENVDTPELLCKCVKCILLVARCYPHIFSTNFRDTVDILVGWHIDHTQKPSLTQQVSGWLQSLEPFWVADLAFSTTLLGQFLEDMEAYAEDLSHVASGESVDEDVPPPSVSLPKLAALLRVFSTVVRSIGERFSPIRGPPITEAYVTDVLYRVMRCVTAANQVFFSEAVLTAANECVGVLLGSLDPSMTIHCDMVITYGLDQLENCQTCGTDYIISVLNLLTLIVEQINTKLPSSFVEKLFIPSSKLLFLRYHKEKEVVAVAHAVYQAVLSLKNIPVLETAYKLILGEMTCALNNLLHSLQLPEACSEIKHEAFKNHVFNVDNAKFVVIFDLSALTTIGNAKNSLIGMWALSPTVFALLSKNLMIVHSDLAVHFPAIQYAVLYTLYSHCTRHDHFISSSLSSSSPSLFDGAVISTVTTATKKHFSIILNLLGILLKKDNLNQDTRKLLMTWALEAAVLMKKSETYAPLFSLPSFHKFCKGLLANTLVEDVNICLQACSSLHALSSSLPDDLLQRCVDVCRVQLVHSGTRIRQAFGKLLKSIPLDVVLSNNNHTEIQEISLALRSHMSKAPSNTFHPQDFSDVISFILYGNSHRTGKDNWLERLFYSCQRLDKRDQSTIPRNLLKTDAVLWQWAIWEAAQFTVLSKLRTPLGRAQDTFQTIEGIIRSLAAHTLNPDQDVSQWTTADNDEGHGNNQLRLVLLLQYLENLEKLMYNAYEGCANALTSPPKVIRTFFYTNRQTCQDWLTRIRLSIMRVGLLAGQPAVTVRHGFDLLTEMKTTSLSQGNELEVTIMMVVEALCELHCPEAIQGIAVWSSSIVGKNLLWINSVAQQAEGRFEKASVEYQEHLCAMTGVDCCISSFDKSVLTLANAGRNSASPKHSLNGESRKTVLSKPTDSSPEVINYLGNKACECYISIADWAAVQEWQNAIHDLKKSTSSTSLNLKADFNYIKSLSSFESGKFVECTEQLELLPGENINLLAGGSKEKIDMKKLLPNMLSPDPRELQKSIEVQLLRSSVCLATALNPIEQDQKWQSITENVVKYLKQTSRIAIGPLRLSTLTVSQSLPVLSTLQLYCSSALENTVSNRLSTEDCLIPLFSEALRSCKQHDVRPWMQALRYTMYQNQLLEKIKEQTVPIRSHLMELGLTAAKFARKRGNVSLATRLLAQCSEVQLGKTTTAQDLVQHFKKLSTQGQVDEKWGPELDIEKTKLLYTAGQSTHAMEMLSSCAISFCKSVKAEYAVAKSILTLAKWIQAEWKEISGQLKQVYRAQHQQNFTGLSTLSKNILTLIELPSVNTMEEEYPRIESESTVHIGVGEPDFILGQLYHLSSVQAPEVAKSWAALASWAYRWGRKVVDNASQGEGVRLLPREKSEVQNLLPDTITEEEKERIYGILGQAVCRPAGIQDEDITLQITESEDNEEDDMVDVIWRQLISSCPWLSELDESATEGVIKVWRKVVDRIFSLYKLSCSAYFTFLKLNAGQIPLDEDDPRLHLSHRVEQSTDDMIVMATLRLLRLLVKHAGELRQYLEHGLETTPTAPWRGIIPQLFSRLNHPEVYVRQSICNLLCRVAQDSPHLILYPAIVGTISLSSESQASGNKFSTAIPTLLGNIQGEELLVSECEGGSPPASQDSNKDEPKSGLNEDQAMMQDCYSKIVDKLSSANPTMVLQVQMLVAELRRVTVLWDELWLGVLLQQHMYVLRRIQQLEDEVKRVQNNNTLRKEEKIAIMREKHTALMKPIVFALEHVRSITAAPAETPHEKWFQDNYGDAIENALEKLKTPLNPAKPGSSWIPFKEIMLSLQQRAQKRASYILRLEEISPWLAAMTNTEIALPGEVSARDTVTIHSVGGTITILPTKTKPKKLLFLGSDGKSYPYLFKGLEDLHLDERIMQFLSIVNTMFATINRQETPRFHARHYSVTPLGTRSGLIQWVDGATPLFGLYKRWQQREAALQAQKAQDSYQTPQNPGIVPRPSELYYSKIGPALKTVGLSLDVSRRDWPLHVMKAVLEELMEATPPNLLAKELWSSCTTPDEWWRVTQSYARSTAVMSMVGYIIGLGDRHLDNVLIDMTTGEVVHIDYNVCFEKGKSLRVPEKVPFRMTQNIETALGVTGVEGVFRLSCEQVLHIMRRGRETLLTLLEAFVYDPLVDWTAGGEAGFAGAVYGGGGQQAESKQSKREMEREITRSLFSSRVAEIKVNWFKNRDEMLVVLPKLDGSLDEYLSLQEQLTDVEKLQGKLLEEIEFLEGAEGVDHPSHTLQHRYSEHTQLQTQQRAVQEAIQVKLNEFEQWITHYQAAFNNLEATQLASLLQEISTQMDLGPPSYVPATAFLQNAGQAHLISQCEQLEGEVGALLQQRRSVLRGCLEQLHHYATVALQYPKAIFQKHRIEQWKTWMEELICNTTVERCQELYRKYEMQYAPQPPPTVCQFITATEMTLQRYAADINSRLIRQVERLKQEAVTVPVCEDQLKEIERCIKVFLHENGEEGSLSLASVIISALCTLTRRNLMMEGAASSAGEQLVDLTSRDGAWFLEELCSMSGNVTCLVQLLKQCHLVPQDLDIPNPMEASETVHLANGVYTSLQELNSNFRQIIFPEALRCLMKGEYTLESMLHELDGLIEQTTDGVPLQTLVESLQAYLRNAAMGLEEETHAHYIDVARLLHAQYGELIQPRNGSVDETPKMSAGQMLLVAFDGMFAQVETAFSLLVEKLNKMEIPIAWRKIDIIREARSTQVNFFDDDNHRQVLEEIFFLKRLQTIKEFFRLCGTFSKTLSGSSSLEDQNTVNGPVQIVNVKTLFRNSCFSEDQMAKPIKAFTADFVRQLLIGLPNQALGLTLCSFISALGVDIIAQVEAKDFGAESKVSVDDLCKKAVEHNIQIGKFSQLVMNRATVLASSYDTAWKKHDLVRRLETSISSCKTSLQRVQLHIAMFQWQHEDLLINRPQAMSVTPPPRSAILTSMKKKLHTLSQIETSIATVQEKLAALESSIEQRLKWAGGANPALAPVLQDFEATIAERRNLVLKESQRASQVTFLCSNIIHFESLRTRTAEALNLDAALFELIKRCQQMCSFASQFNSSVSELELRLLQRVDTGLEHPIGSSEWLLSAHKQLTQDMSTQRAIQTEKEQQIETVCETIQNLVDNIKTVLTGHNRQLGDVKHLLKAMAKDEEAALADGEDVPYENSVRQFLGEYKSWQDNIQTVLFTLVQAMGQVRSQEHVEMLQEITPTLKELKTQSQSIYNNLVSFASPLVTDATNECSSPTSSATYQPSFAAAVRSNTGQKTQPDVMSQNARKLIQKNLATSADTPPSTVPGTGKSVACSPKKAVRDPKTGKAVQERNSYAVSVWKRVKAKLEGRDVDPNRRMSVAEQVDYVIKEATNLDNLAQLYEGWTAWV

## O=c1[nH]cc(F)c(=O)[nH]1 [5-FU, 5-fluorouracil, reference compound]
[1]
  Ser-15 phosphorylation of p53: not accompanied by an increase in Ser-15 phosphorylation
  p53 expression: increased p53 expression to levels similar to those observed in UV-irradiated cells

## 5′-GAGACAGGAGGGAGCTTGCT-3′ (all phosphorothioate, sugars by position and methylation of C not given here) [S oligonucleotide, reference compound]
[2]
  cell-cycle distribution after IR exposure: accumulated in both G1 and G2/M phases and were cleared out of S phase
[3]
  decrease of basal level of colony outgrowth (basal clonogenic activity): 25%

## COC[C@H]1OC(=O)c2coc3c2[C@@]1(C)C1=C(C3=O)[C@@H]2CCC(=O)[C@@]2(C)C[C@H]1OC(C)=O [wortmannin]
[4]
  IC50: 1000 to 3000 nM
[5]
  IC50: 10 to 100 nM
